In patent US6426331B1, “Inhibitors of STAT function” (Tularik Inc., priority 1998, dated 2002) one finds IC50 data, which are given here for 39 molecules.

This assay has as its target T1, STAT6 (Homo sapiens, UniProt P42226).
T1 sequence (P42226 1-847): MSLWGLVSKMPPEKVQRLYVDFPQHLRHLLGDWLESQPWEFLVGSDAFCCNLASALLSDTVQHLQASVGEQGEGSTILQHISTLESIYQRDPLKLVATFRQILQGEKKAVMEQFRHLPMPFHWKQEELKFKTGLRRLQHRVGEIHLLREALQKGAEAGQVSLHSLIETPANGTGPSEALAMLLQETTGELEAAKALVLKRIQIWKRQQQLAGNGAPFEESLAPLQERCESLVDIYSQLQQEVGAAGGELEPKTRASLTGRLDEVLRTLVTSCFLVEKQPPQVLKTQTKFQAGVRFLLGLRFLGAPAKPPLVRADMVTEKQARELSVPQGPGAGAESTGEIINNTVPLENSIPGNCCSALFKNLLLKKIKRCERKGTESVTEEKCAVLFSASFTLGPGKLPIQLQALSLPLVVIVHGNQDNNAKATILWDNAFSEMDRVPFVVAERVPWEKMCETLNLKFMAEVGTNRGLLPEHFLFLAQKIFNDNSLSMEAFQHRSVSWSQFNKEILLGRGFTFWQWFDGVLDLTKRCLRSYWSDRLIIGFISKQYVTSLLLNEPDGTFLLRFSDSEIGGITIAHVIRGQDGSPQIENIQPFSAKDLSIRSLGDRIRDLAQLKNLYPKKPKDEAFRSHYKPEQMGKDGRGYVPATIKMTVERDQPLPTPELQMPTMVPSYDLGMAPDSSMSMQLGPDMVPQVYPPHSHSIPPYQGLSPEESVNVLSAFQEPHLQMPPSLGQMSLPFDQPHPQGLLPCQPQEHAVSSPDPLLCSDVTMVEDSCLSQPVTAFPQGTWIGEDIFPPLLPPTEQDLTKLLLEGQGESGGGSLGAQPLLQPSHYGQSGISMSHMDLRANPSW
Description: Inhibition of STAT6 binding (duplex formation). The method, then: The compounds of the present invention can be evaluated for STAT binding activity using methods such as those described in U.S. Pat. No. 6,207,391 (for STAT6 binding). Other assays for STAT binding can be found in, for example, U.S. Pat. Nos. 5,618,693, 5,639,858 and 5,756,700.
Using methods similar to those described in Examples 1 and 2, the compounds provided in Table 1 were prepared and evaluated as inhibitors of STAT6 binding (duplex formation). The assay is described in U.S. Pat. No. 6,207,391, filed Mar. 31, 1998. In each of the tables below: a + symbol indicates and IC50 of >100 μM; a ++ symbol indicates and IC50 of 50-100 μM; a +++ symbol indicates and IC50 of 1-50 μM; and a ++++ symbol indicates and IC50 of <1.0 μM.

[1] abbreviates: Table 1, inhibitors of STAT6 binding (duplex formation).

Molecules are shown by their SMILES. Some results are limits rather than exact numbers.

For orientation: IC50 means the midpoint of a concentration-inhibition curve.

For the setting “Table 2, STAT6 binding”, `CC(C)(C)[C@H](NC(=O)/C=C/c1ccc(CP(=O)(O)O)cc1)C(=O)N1CCC[C@H]1C(=O)N(c1ccccc1)c1ccc(C(N)=O)cc1` had an IC50 of 1 to 50 µM.
As to `CC(C)(C)[C@H](NC(=O)/C=C/c1cccc(CP(=O)(O)O)c1)C(=O)N1CCC[C@H]1C(=O)N(c1ccccc1)c1ccc(C(N)=O)cc1`, for the setting “Table 2, STAT6 binding”, the 50% inhibitory concentration (IC50) is greater than 100 µM.
`CC(C)(C)[C@H](NC(=O)/C=C/c1ccc(C(O)P(=O)(O)O)cc1)C(=O)N1CCC[C@H]1C(=O)N(c1ccccc1)c1ccc(C(N)=O)cc1` (stereo partly drawn) showed a half-maximal inhibitory concentration (IC50) (Table 2, STAT6 binding) of 1 to 50 µM.
`CC(C)(C)[C@H](NC(=O)/C=C/c1ccc(C(F)(F)P(=O)(O)O)cc1)C(=O)N1CCC[C@H]1C(=O)N(c1ccccc1)c1ccc(C(N)=O)cc1` gave a half-maximal inhibitory concentration (IC50) (Table 2, STAT6 binding) of less than 1 µM.
In turn, `CC(C)(C)[C@H](NC(=O)/C=C/c1ccc(P(=O)(O)O)cc1)C(=O)N1CCC[C@H]1C(=O)N(c1ccccc1)c1ccc(C(N)=O)cc1` displayed an IC50 (Table 2, STAT6 binding) of 1 to 50 µM.
On to `COc1cc(/C=C/C(=O)N[C@H](C(=O)N2CCC[C@H]2C(=O)N(c2ccccc2)c2ccc(C(N)=O)cc2)C(C)(C)C)ccc1P(=O)(O)O`, for which the IC50 (Table 2, STAT6 binding) fell in the range of 1 to 50 µM.
On the same count and under the same terms, for `CC(C)(C)[C@H](NC(=O)/C=C/c1ccc(P(=O)(O)O)c(O)c1)C(=O)N1CCC[C@H]1C(=O)N(c1ccccc1)c1ccc(C(N)=O)cc1` the value was 1 to 50 µM; for `CC(C)(C)[C@H](NC(=O)/C=C/c1ccc(C(=O)O)cc1)C(=O)N1CCC[C@H]1C(=O)N(c1ccccc1)c1ccc(C(N)=O)cc1`, greater than 100 µM.
Under “Table 2, STAT6 binding”, `CC(C)(C)[C@H](NC(=O)/C=C/c1cccc(C(=O)O)c1)C(=O)N1CCC[C@H]1C(=O)N(c1ccccc1)c1ccc(C(N)=O)cc1` came in with an IC50 greater than 100 µM.
Molecule `CC(C)(C)[C@H](NC(=O)/C=C/c1ccc(C(=O)O)c(C(=O)O)c1)C(=O)N1CCC[C@H]1C(=O)N(c1ccccc1)c1ccc(C(N)=O)cc1` yielded an IC50 (Table 2, STAT6 binding) of 1 to 50 µM.
`CC(C)(C)[C@H](NC(=O)/C=C/c1cccc(CC(=O)O)c1)C(=O)N1CCC[C@H]1C(=O)N(c1ccccc1)c1ccc(C(N)=O)cc1` showed an IC50 (Table 2, STAT6 binding) greater than 100 µM.
`CC(C)(C)[C@H](NC(=O)/C=C/c1ccc(CC(=O)O)cc1)C(=O)N1CCC[C@H]1C(=O)N(c1ccccc1)c1ccc(C(N)=O)cc1` displayed a half-maximal inhibitory concentration (IC50) (Table 2, STAT6 binding) greater than 100 µM.
As to `CC(C)(C)[C@H](NC(=O)/C=C/c1ccc(OCC(=O)O)cc1)C(=O)N1CCC[C@H]1C(=O)N(c1ccccc1)c1ccc(C(N)=O)cc1`, the half-maximal inhibitory concentration (IC50) (Table 2, STAT6 binding) is greater than 100 µM.
Where the note is “Table 2, STAT6 binding”, `CC(C)(C)[C@H](NC(=O)/C=C/c1ccc(OC(F)(C(=O)O)C(=O)O)cc1)C(=O)N1CCC[C@H]1C(=O)N(c1ccccc1)c1ccc(C(N)=O)cc1` returned an IC50 of 1 to 50 µM.
Regarding `CC(C)(C)[C@H](NC(=O)/C=C/c1ccc(C(=O)O)cn1)C(=O)N1CCC[C@H]1C(=O)N(c1ccccc1)c1ccc(C(N)=O)cc1`, the IC50 (Table 2, STAT6 binding) is greater than 100 µM.
For the setting “Table 2, STAT6 binding”, `CC(C)(C)[C@H](NC(=O)/C=C/c1cccc(C(=O)O)n1)C(=O)N1CCC[C@H]1C(=O)N(c1ccccc1)c1ccc(C(N)=O)cc1` showed an IC50 greater than 100 µM.
`CC(C)(C)[C@H](NC(=O)/C=C/c1ccc(C(O)C(=O)O)cc1)C(=O)N1CCC[C@H]1C(=O)N(Cc1ccc(CN)cc1)c1ccc(C(N)=O)cc1` (stereo partly drawn) [drawing 46: H, H, 4-CONH2,4-CH2NH2]: under setting [1], the half-maximal inhibitory concentration (IC50) lay in the range of 1 to 50 µM.
As to `CC(C)(C)[C@H](NC(=O)/C=C/c1ccc(C(O)C(=O)O)cc1)C(=O)N1CCC[C@H]1C(=O)N(Cc1ccccc1)c1ccc(C(=O)Nc2ccccc2)cc1` (stereo partly drawn) [drawing 46: H, H, 4-CONHPh, H], the IC50 under setting [1] was greater than 100 µM.
As for `CC(C)(C)[C@H](NC(=O)/C=C/c1ccc(C(O)C(=O)O)cc1)C(=O)N1C[C@H](N(Cc2ccccc2)Cc2ccccc2)C[C@H]1C(=O)N(Cc1ccccc1)c1ccc(C(N)=O)cc1` (stereo partly drawn) [drawing 46: H, —N(Bn)2,4-CONH2, H], the IC50 under setting [1] was greater than 100 µM.
Take `CN(C)[C@@H]1C[C@@H](C(=O)N(Cc2ccccc2)c2ccc(C(N)=O)cc2)N(C(=O)[C@@H](NC(=O)/C=C/c2ccc(C(O)C(=O)O)cc2)C(C)(C)C)C1` (stereo partly drawn) [drawing 46: H, —N(CH3)2,4-CONH2, H]: under setting [1], the IC50 lay within 50 to 100 µM.
`CC(C)(C)[C@H](NC(=O)/C=C/c1ccc(C(O)C(=O)O)cc1)C(=O)N1C[C@H](N)C[C@H]1C(=O)N(Cc1ccccc1)c1ccc(C(N)=O)cc1` (stereo partly drawn) [drawing 46: H, —NH2,4-CONH2, H] yielded a concentration for half-maximal inhibition (IC50) under setting [1] of 1 to 50 µM.
`Cc1ccc(S(=O)(=O)N[C@@H]2C[C@@H](C(=O)N(Cc3ccccc3)c3ccc(C(N)=O)cc3)N(C(=O)[C@@H](NC(=O)/C=C/c3ccc(C(O)C(=O)O)cc3)C(C)(C)C)C2)cc1` (stereo partly drawn) [drawing 46: H, —NH-Tosyl, 4-CONH2, H] registered an IC50 under setting [1] greater than 100 µM.
The same measure, in the same setting: the figure for `CC(=O)N[C@@H]1C[C@@H](C(=O)N(Cc2ccccc2)c2ccc(C(N)=O)cc2)N(C(=O)[C@@H](NC(=O)/C=C/c2ccc(C(O)C(=O)O)cc2)C(C)(C)C)C1` (stereo partly drawn) [drawing 46: H, —NHAc, 4-CONH2, H] is 1 to 50 µM.
Turning to `CC(C)(C)[C@H](NC(=O)/C=C/c1ccc(C(O)C(=O)O)cc1)C(=O)N1C[C@H](NC(=O)c2ccccc2)C[C@H]1C(=O)N(Cc1ccccc1)c1ccc(C(N)=O)cc1` (stereo partly drawn) [drawing 46: H, —NHBz, 4-CONH2, H], the IC50 under setting [1] fell in the range of 1 to 50 µM.
Under setting [1], `CC(C)(C)[C@H](NC(=O)/C=C/c1ccc(C(O)C(=O)O)cc1)C(=O)N1C[C@H](NC(=O)OCc2ccccc2)C[C@H]1C(=O)N(Cc1ccccc1)c1ccc(C(N)=O)cc1` (stereo partly drawn) [drawing 46: H, —NHCO2Bn, 4-CONH2, H] had an IC50 of 1 to 50 µM.
The molecule `CC(C)C(=O)N[C@@H]1C[C@@H](C(=O)N(Cc2ccccc2)c2ccc(C(N)=O)cc2)N(C(=O)[C@@H](NC(=O)/C=C/c2ccc(C(O)C(=O)O)cc2)C(C)(C)C)C1` (stereo partly drawn) [drawing 46: H, —NHCOCH(CH3)2, 4-CONH2, H] came in with an IC50 under setting [1] of 1 to 50 µM.
Still for that read-out and setting: for `CC(C)(C)[C@H](NC(=O)/C=C/c1ccc(C(O)C(=O)O)cc1)C(=O)N1C[C@H](NS(C)(=O)=O)C[C@H]1C(=O)N(Cc1ccccc1)c1ccc(C(N)=O)cc1` (stereo partly drawn) [drawing 46: H, —NHSO2CH3,4-CONH2, H] the value was 1 to 50 µM.
Consider `CC(=O)N[C@H]1C[C@@H](C(=O)N(Cc2ccccc2)c2ccc(C(N)=O)cc2)N(C(=O)[C@@H](NC(=O)/C=C/c2ccc(C(O)C(=O)O)cc2)C(C)(C)C)C1` (stereo partly drawn) [drawing 46: —NHAC, H, 4-CONH2, H], for which the IC50 under setting [1] was in the range of 1 to 50 µM.
As to `Cc1ccc(N(C(=O)C2CCCN2C(=O)C(NC(=O)C=Cc2ccc(OP(=O)(O)O)cc2)C(C)(C)C)c2ccccc2)cc1` (stereo not drawn) [drawing 69: CH3], the IC50 (Table 3, STAT6 binding) is less than 1 µM.
Molecule `COC(=O)c1ccc(N(C(=O)C2CCCN2C(=O)C(NC(=O)C=Cc2ccc(OP(=O)(O)O)cc2)C(C)(C)C)c2ccccc2)cc1` (stereo not drawn) [drawing 69: CO2CH3] returned a concentration for half-maximal inhibition (IC50) (Table 3, STAT6 binding) of less than 1 µM.
Take `CC(C)(C)C(NC(=O)C=Cc1ccc(OP(=O)(O)O)cc1)C(=O)N1CCCC1C(=O)N(c1ccccc1)c1ccc(C(=O)O)cc1` (stereo not drawn) [drawing 69: CO2H]: under “Table 3, STAT6 binding”, the IC50 fell in the range of 1 to 50 µM.
Regarding `CC(C)(C)C(NC(=O)C=Cc1ccc(OP(=O)(O)O)cc1)C(=O)N1CCCC1C(=O)N(c1ccccc1)c1ccc(C(N)=O)cc1` (stereo not drawn) [drawing 69: CONH2], the IC50 (Table 3, STAT6 binding) is less than 1 µM.
On the same count and under the same terms, for `CC(C)(C)C(NC(=O)C=Cc1ccc(OP(=O)(O)O)cc1)C(=O)N1CCCC1C(=O)N(c1ccccc1)c1ccc(Cl)cc1` (stereo not drawn) [drawing 69: Cl] the value was less than 1 µM; for `CC(C)(C)C(NC(=O)C=Cc1ccc(OP(=O)(O)O)cc1)C(=O)N1CCCC1C(=O)N(c1ccccc1)c1ccccc1` (stereo not drawn) [drawing 69: H], less than 1 µM; for `CC(C)(C)C(NC(=O)C=Cc1ccc(OP(=O)(O)O)cc1)C(=O)N1CCCC1C(=O)N(c1ccccc1)c1ccc(I)cc1` (stereo not drawn) [drawing 69: I], less than 1 µM.
Consider `COc1ccc(N(C(=O)C2CCCN2C(=O)C(NC(=O)C=Cc2ccc(OP(=O)(O)O)cc2)C(C)(C)C)c2ccccc2)cc1` (stereo not drawn) [drawing 69: OCH3], for which the IC50 (Table 3, STAT6 binding) is less than 1 µM.
`CC(=O)NCc1cccc(N(Cc2ccc(C(N)=O)cc2)C(=O)C2CCCN2C(=O)C(NC(=O)C=Cc2ccc(OP(=O)(O)O)cc2)C(C)(C)C)c1` (stereo not drawn) [drawing 70: 3-CH2NHAc, 4-CONH2]: the half-maximal inhibitory concentration (IC50) (Table 4, STAT6 binding) is less than 1 µM.
On the same count and under the same terms, for `CC(=O)NCc1ccc(CN(C(=O)C2CCCN2C(=O)C(NC(=O)C=Cc2ccc(OP(=O)(O)O)cc2)C(C)(C)C)c2cccc(C(N)=O)c2)cc1` (stereo not drawn) [drawing 70: 3-CONH2,4-CH2NHAc] the value was less than 1 µM; for `CC(=O)NCc1ccc(N(Cc2ccc(C(N)=O)cc2)C(=O)C2CCCN2C(=O)C(NC(=O)C=Cc2ccc(OP(=O)(O)O)cc2)C(C)(C)C)cc1` (stereo not drawn) [drawing 70: 4-CH2NHAc, 4-CONH2], less than 1 µM.
